Reference: ChEMBL document CHEMBL1268925 (J Med Chem, 2010)

Biological target: T1, Dihydrofolate reductase (Bacillus anthracis, UniProt Q81R22)
T1 sequence (Q81R22 whole entry): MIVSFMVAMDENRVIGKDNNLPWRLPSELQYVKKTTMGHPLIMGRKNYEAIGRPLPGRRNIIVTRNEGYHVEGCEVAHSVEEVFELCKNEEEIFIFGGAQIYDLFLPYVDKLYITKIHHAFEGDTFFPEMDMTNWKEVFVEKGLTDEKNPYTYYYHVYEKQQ

Row | Compound | IC50 [µM] | Ki [µM]
1 | COc1cc(C(C)(C)C#Cc2c(C)nc(N)nc2N)cc(OC)c1OC | 12.7 | 4.28
2 | CCc1nc(N)nc(N)c1C#CCc1cc(OC)ccc1-c1ccccc1 | 7.7 | 2.59
